Data published in patent publication US4353912A, “N-Haloalkyl nor apomorphines and method of inactivating dopamine receptor sites and enhancing dopaminergic activity therewith” (Northeastern University, priority 1980, dated 1982).
Where a name gives a salt, the structure may show the parent alone.

Legend:
dopamine receptors [1] = assay: Apomorphine-induced climbing in mice (climbing index); assay type: in vivo; settings: for effect on apomorphine climbing: 10 mg/kg s.c.; for effect on apomorphine climbing index: apomorphine 1.0 mg/kg s.c.
Method: Climbing behavior was measured by placing mice in individual cages (20×15×15 cm) lined with wire mesh. A "climbing index", i.e., the percentage of time spent climbing during the 30-minute period following the first climb, was determined.

[2] = biological target: T1, dopamine receptors (^3 H-NPA binding sites) (Rattus norvegicus, UniProt P61169); assay: In vitro inhibition of ^3 H-NPA binding to rat striatal homogenate; settings: for reversal of inhibition of ^3 H-NPA binding by washing of membranes: FIG. 8
T1 sequence (P61169 whole entry): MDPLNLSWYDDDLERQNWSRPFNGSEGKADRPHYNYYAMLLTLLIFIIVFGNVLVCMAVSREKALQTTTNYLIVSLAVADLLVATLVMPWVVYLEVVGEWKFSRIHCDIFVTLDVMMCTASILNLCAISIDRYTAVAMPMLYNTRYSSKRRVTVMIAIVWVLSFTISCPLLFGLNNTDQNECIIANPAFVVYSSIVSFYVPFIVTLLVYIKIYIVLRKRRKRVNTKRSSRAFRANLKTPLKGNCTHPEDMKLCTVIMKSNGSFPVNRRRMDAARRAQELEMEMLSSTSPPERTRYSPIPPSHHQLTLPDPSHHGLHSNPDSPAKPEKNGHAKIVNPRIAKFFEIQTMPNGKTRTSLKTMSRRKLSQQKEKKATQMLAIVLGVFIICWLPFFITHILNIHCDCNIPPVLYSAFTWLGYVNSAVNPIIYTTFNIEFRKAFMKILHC

[3] = biological target: T1, dopamine receptors (^3 H-NPA binding sites)
[4] = tested on: striatal dopamine receptors; assay: Apomorphine-induced circling in unilateral striatectomized mice; assay type: in vivo
Method: Among such induced behavioral characteristics are circling, climbing and stereotypy.
Male albino mice in the weight range of 35-40 grams were used in the determination of circling behavior. The mice were prepared for circling experiments using standard stereotaxic techniques to place unilateral electrolesions in the right caudate-putamen (1.0 mm anterior to bregma, 2.0 mm lateral and 3.5 mm below the skull surface, 1.5 mA/15 s). […] Those mice circling less than 6 revolutions every 2 minutes were excluded from subsequent studies.

[5] = biological target: T2, dopamine-sensitive adenylate cyclase (Rattus norvegicus, UniProt P18901); settings: Walton et al., Eur. J. Pharmacol. 52: 231 (1978); cited from earlier work
T2 sequence (P18901 whole entry): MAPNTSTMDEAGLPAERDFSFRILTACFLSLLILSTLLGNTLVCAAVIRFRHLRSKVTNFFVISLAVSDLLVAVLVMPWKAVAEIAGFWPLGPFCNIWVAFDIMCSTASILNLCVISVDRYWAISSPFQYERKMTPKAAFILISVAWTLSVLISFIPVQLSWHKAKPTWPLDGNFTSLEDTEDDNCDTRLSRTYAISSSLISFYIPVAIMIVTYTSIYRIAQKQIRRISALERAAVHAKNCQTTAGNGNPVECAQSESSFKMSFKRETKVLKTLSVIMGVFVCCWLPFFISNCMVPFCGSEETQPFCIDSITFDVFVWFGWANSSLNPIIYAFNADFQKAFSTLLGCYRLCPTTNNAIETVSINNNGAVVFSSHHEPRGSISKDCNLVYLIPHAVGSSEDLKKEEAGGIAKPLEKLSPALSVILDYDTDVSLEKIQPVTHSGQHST
T2 sequence (Q04400 whole entry partner): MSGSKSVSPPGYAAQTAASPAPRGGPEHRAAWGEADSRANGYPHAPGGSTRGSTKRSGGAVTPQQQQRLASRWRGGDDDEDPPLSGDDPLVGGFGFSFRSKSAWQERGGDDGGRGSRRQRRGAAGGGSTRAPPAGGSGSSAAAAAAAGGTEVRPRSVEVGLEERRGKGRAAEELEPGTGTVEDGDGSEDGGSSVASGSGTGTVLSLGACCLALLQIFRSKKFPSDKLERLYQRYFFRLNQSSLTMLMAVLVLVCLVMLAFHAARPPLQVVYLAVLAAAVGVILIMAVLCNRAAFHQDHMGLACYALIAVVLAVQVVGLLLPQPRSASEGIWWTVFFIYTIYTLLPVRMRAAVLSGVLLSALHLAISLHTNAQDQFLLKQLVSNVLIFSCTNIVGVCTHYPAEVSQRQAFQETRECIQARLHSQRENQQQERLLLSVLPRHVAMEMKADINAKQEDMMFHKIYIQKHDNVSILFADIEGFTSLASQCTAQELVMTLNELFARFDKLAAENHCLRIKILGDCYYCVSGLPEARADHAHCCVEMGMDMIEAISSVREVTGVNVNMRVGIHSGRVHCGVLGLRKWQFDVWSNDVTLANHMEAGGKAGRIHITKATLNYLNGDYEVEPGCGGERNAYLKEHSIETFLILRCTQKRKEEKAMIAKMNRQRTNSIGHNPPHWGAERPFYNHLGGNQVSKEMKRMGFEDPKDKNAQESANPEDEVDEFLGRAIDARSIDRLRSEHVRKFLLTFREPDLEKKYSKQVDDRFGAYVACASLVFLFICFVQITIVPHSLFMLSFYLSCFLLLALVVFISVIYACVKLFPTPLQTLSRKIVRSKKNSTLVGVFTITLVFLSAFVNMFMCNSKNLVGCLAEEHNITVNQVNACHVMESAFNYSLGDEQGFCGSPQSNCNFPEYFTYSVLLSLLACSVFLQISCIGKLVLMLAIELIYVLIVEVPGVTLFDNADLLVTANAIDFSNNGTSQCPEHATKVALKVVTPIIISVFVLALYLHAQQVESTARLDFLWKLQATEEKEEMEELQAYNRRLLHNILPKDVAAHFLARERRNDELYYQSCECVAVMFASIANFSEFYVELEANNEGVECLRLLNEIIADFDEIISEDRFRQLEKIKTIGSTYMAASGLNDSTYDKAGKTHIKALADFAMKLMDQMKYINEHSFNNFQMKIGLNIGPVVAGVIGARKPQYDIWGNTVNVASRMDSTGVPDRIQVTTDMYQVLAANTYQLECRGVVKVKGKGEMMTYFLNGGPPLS

dopamine receptors [6] = assay: Apomorphine-induced stereotypy; assay type: in vivo; settings: 10 mg/kg pretreatment; apomorphine 1 mg/kg
Description: Apomorphine-induced behavioral characteristics in the rodent are considered to involve dopamine agonist action on striatal and mesolimbic dopamine receptors. […] Among such induced behavioral characteristics are circling, climbing and stereotypy.

[7] = biological target: T2, dopamine-sensitive adenylate cyclase; assay: Inhibition of activation of dopamine-sensitive adenylate cyclase in rat striatal homogenates; assay type: biochemical
Method: Washed tissue, including one specimen without NCA as a control, was then incubated with zero or 50 μM of dopamine in the presence of an excess of adenosine triphosphate for 2.5 minutes at 37° and the level of cyclic adenosine monophosphate in the incubation mixture with and without dopamine was assayed by a protein binding method. The increase in cyclic adenosine monophosphate levels due to the dopamine was estimated for all conditions.

dopamine receptors [8] = assay: Circling/asymmetry in rats after unilateral intrastriatal injection and apomorphine challenge; assay type: in vivo, rat
Method: A further behavioral model utilized rats (male, Sprague-Dawley, 300±25 g). […] Bilateral guide cannulae were chronically implanted in the rats, using standard stereotaxic techniques, to allow drug/vehicle injection at the center of the caudate-putamen complex (Ant. 8.0, Lat. +3.0, Vert. +1.5, De Groot, 1959). Fourteen days after cannulation, the animals were manually restrained and the drug in a solvent vehicle was injected in a volume of 4 μliters (1 μliter/min) into the right and left striata, respectively. The 4 μliter contained dosages of 10 μg or 40 μg of the drug.
The resting asymmetry was particularly evident when the animals were disturbed and was also noted two and five days after the injection of the (-)N-(2-chloroethyl)norapomorphine. By the seventh day the ipsilateral asymmetry was variable and was not apparent by the fourteenth day.
Again, as in the circling experiments with the mice, it was apparent that the dopamine inhibitory actions of the drug endured for 2 to 4 days. The recovery of the behavioral response possibly reflects the resynthesis of dopamine receptors.

## OCCN1CCc2cccc3c2[C@H]1Cc1ccc(O)c(O)c1-3 [(-)N-(2-hydroxyethyl)norapomorphine.HCl]
Dopamine receptors [1]; 90-minute pretreatment
  effect on apomorphine climbing: failed to modify apomorphine climbing
[2]; 5×10^-7 M
  reversal of inhibition of ^3 H-NPA binding by washing of membranes: reversed

## COc1ccc2c(c1OC(C)=O)-c1cc(O)cc3c1C(C2)N(C(=O)CN(CCCl)CCCl)CC3 (centres unmarked) [6-[2-bis(2-chloroethyl)amino]acetyl-11-acetoxy-2-hydroxy-10-methoxy-apoporphine hemihydrate, reference compound]
Dopamine receptors [1]; four-hour pretreatment
  effect on apomorphine climbing: failed to modify apomorphine climbing

## CCCN1CCc2cccc3c2C1Cc1ccc(O)c(O)c1-3 (single isomer, unassigned) [^3 H-NPA, ^3 H-N-n-propylnorapomorphine, reference compound]
[3]
  density of ^3 H-NPA binding sites: approximately 180 fmol/mg protein
[2]
  Bmax: 190 fmol/mg protein

## CN1CCc2cccc3c2[C@H]1Cc1ccc(O)c(O)c1-3 [apomorphine]
[4]; 0.25-1 mg/kg apomorphine, dose-dependent
  circling behavior: 2-10 revolutions every 12 minutes

## COc1ccc2c(c1O)-c1cccc3c1[C@@H](C2)N(CCCl)CC3 [(-)N-(2-chloroethyl)norapocodiene.HCl, reference compound]
Dopamine receptors [1]; four-hour pretreatment
  effect on apomorphine climbing: failed to modify apomorphine climbing

## CC(COc1ccccc1)N(CCCl)Cc1ccccc1 (centres unmarked) [phenoxybenzamine]
[5]
  action on dopamine-sensitive adenylate cyclase: irreversible blocking action

## Oc1ccc2c(c1O)-c1cccc3c1[C@@H](C2)N(CCCl)CC3 [NCA]
Dopamine receptors [6]
  effect on submaximal stereotypic effect of apomorphine (repetitive sniffing, periodic biting, continuous biting): failed to modify
[7]; 10 min, NCA 10 μM, 10 min 37° C. preincubation, washed, 50 μM dopamine
  percent dopamine stimulation of cAMP production at 10 µM: 84%
[7]; 10 min, NCA 30 μM, 10 min 37° C. preincubation, washed, 50 μM dopamine
  percent dopamine stimulation of cAMP production at 30 µM: 44%
[7]; 10 min, NCA 75 μM, 10 min 37° C. preincubation, washed, 50 μM dopamine
  percent dopamine stimulation of cAMP production at 75 µM: 8%
[7]; NCA 10 μM
  inhibition at 10 µM: 16%
[7]; NCA 30 μM
  inhibition at 30 µM: 56%
[7]; NCA 75 μM
  inhibition at 75 µM: 92%
Dopamine receptors [1]; 10 mg/kg i.p. pretreatment
  effect on apomorphine climbing index: reduced this index
Dopamine receptors [1]; 20 mg/kg i.p. pretreatment
  effect on apomorphine climbing index: greatly reduced
Dopamine receptors [1]; after i.p. administration
  duration of reduction of climbing index: up to between four and five days
Dopamine receptors [8]; 40 μg intrastriatal, apomorphine 0.5 mg/kg s.c., four hours and two days, to a lesser extent 5 days after administration
  circling on apomorphine challenge: precipitated a clear circling behavior
Dopamine receptors [8]; 10 and 40 μg intrastriatal
  ipsilateral asymmetry/circling movements after unilateral injection into the caudate-putamen: induced ipsilateral asymmetry/circling movements within an hour
Dopamine receptors [8]; fourteenth day
  resting ipsilateral asymmetry: not apparent
Dopamine receptors [8]; seventh day
  resting ipsilateral asymmetry: variable
Dopamine receptors [8]; two and five days after injection
  resting ipsilateral asymmetry: noted
[4]; 1.0 mg/kg s.c., apomorphine 0.5 mg/kg s.c., 4 hours to 7 days after administration
  inhibition of apomorphine-induced circling: essentially no inhibition
[4]; higher dosage levels (2.0 or 4.0 mg/kg s.c.), after 2 days
  reduction in circling: still apparent
[4]; highest dosage level (4.0 mg/kg s.c.), after 5 days
  reduction in circling: 39%
[3]; 40 μg NCA intrastriatal, day 2
  reduction of number of ^3 H-NPA binding sites: approximately 50%
[3]; 40 μg NCA intrastriatal, days 7 and 14
  number of sites available for ^3 H-NPA binding: returned to control values
[2]
  IC50: 1800 nM
[2]; 5×10^-6 M
  reversal of inhibition of ^3 H-NPA binding by washing of membranes: not reversed
[2]; NCA 10^-5 M, repeated washing
  reversal of prevention of ^3 H-NPA binding by washing: not reversed by repeated washing
[2]; high concentrations of phentolamine and propranolol, NCA 3×10^-5 M
  inhibition of ^3 H-NPA binding in the presence of blocking agents: also apparent
